Data reported in patent US20180170942A1, “POLYCYCLIC DERIVATIVES TARGETING RAL GTPASES AND THEIR THERAPEUTICAL APPLICATIONS” (NANTBIO, INC., priority 2015, published 2018).

What was measured:
[1] = test system: H2122 human lung cancer cells; assay: In vitro growth inhibition of human cancer cells under anchorage-independent conditions in soft agar (colony count); assay type: cell-based; settings: NCI-H2122, 336 h, 50% reduction in colony number vs DMSO controls, two weeks incubation, MTT stain
Procedure: In vitro growth inhibition of human cancer cells: Growth inhibition of human lung cancer cells by the compounds was measured under anchorage-independent conditions in soft agar. H2122 human lung cancer cells were seeded into 6-well plates (coated with a base layer made of 2 ml of 1% low-melting-point agarose) at 15,000 cells per well in 3 ml of 0.4% low-melting-point agarose containing various concentration of drug. Two weeks after incubation, cells were stained with 1 mg/ml MTT and colonies were counted under a microscope. […] Data are analyzed using Excel (Microsoft), and IC50 values are determined using Prism (Graphpad). The results of the in vitro H2122 growth inhibition activity of the representative compounds of the present invention are shown in the following Table: […]

[2] = test system: MiaPaCa2 pancreatic cell line; settings: inhibitory effects were modest; cited from earlier work

Row | Compound | IC50 [1] | inhibition of in vitro growth and survival [2]
1 | Cn1nc(-c2cc3ccccc3o2)c2c1OC(N)=C(C#N)C2c1ccc(-n2ccnc2)cc1 (stereo not drawn) [Compound 20] | 0.49 µM | –
2 | Cc1nn(C)c2c1C(c1ccc(-n3ccnc3C)cc1)C(C#N)=C(N)O2 (stereo not drawn) [Compound 16] | 1.02 µM | –
3 | Cc1nn(-c2ccc(F)cc2)c2c1C(c1ccc(-n3ccnc3)cc1)C(C#N)=C(N)O2 (stereo not drawn) [Compound 44] | 0.98 µM | –
4 | CCCc1n[nH]c2c1C(c1cc(OC)ccc1OC)C(C#N)=C(N)O2 (stereo not drawn) [Compound 2] | 3.56 µM | –
5 | CC(C)c1nn(C)c2c1C(c1ccc(-n3ccnc3)cc1)C(C#N)=C(N)O2 (stereo not drawn) [Compound 25] | 1.07 µM | –
6 | Cc1nn(-c2ccncc2)c2c1C(c1ccc(-n3ccnc3)cc1)C(C#N)=C(N)O2 (stereo not drawn) [Compound 46] | 2.08 µM | –
7 | CCCc1nn(C)c2c1C(c1cc(Cl)cc(Cl)c1O)C(C#N)=C(N)O2 (stereo not drawn) [Compound 4] | 1.59 µM | –
8 | Cn1nc(Cc2ccccc2)c2c1OC(N)=C(C#N)C2c1ccc(-n2ccnc2)cc1 (stereo not drawn) [Compound 21] | 0.89 µM | –
9 | Cc1nn(C)c2c1C(c1ccc(-c3ncccn3)cc1)C(C#N)=C(N)O2 (stereo not drawn) [Compound 24] | 6.13 µM | –
10 | COc1cc(C(F)(F)F)ccc1C1C(C#N)=C(N)Oc2c1c(C)nn2C (stereo not drawn) [Compound 15] | 1.71 µM | –
11 | Cc1nccn1-c1ccc(C2C(C#N)=C(N)Oc3c2c(-c2cc4ccccc4o2)nn3C)cc1 (stereo not drawn) [Compound 40] | 1.59 µM | –
12 | COc1ccc(-n2nc(C)c3c2OC(N)=C(C#N)C3c2ccc(-n3ccnc3)cc2)cc1 (stereo not drawn) [Compound 45] | 1.62 µM | –
13 | Cn1nc(C2CCCC2)c2c1OC(N)=C(C#N)C2c1ccc(-n2ccnc2)cc1 (stereo not drawn) [Compound 18] | 1.28 µM | –
14 | Cc1nn(C)c2c1C(c1ccc(-n3cccn3)cc1)C(C#N)=C(N)O2 (stereo not drawn) [Compound 38] | 5.75 µM | –
15 | Cc1n[nH]c2c1C(c1ccc(C(F)(F)F)cc1)C(C#N)=C(N)O2 (stereo not drawn) [Compound 9] | 5.05 µM | –
16 | Cc1cn(-c2ccc(C3C(C#N)=C(N)Oc4c3c(C)nn4C)cc2)cn1 (stereo not drawn) [Compound 39] | 5.11 µM | –
17 | COc1ccc(-c2nn(-c3ccccc3)c3c2C(c2ccc(-n4ccnc4)cc2)C(C#N)=C(N)O3)cc1 (stereo not drawn) [Compound 49] | 3.15 µM | –
18 | Cn1nc(-c2cc3ccccc3o2)c2c1OC(N)=C(C#N)C2c1ccc(OC(F)(F)F)cc1 (stereo not drawn) [Compound 29] | 3.91 µM | –
19 | CCCc1n[nH]c2c1C(c1cc(Cl)cc(Cl)c1O)C(C#N)=C(N)O2 (stereo not drawn) [Compound 1] | 2.21 µM | –
20 | CCCc1n[nH]c2c1C(c1ccc3ccccc3c1)C(C#N)=C(N)O2 (stereo not drawn) [Compound 3] | 3.72 µM | –
21 | COc1ccc(-c2nn(C)c3c2C(c2ccc(-n4ccnc4)cc2)C(C#N)=C(N)O3)cc1 (stereo not drawn) [Compound 48] | 1.32 µM | –
22 | Cc1nn(C)c2c1C(c1ccc(-n3cncn3)cc1)C(C#N)=C(N)O2 (stereo not drawn) [Compound 33] | 2.49 µM | –
23 | CC(=O)Nc1ccc(C2C(C#N)=C(N)Oc3c2c(C)nn3C)cc1 (stereo not drawn) [Compound 35] | 2.78 µM | –
24 | Cc1nn(-c2ccccc2)c2c1C(c1ccc(-n3ccnc3)cc1)C(C#N)=C(N)O2 (stereo not drawn) [Compound 43] | 0.7 µM | –

Row | Compound | IC50 [1] | inhibition of in vitro growth and survival [2]
25 | COc1cccc(OC)c1C1C(C#N)=C(N)Oc2c1c(C)nn2C (stereo not drawn) [Compound 11] | 2.19 µM | –
26 | Cc1nn(C)c2c1C(c1ccc(-n3cccc3)cc1)C(C#N)=C(N)O2 (stereo not drawn) [Compound 37] | 6.02 µM | –
27 | CCCc1nn(C)c2c1C(c1cc(OC)ccc1OC)C(C#N)=C(N)O2 (stereo not drawn) [Compound 5] | 3.86 µM | –
28 | Cn1nc(-c2n[nH]c3ccccc23)c2c1OC(N)=C(C#N)C2c1ccc(-n2ccnc2)cc1 (stereo not drawn) [Compound 41] | 1.82 µM | –
29 | Cc1nn(C)c2c1C(c1ccc(-c3ccccc3)cc1)C(C#N)=C(N)O2 (stereo not drawn) [Compound 12] | 4 µM | –
30 | Cn1nc(-c2ccccn2)c2c1OC(N)=C(C#N)C2c1ccc(-n2ccnc2)cc1 (stereo not drawn) [Compound 22] | 2.04 µM | –
31 | Cn1nc(-c2cc3ccccc3o2)c2c1OC(N)=C(C#N)C2c1cc(Cl)cc(Cl)c1O (stereo not drawn) [Compound 30] | 1.71 µM | –
32 | Cc1nn(C)c2c1C(c1ccc(-n3cnc4ccccc43)cc1)C(C#N)=C(N)O2 (stereo not drawn) [Compound 27] | 0.84 µM | –
33 | Cn1nc(-c2cnccn2)c2c1OC(N)=C(C#N)C2c1ccc(-n2ccnc2)cc1 (stereo not drawn) [Compound 23] | 1.08 µM | –
34 | COC(=O)[C@H](CC(C)C)NC(=O)N1CCN(Cc2nc[nH]c2C)C(=O)[C@@H]1Cc1ccccc1 [GGTI-2417] | – | inhibit the in vitro growth and survival
35 | Cc1nnc(-c2ccc(C3C(C#N)=C(N)Oc4c3c(C)nn4C)cc2)o1 (stereo not drawn) [Compound 32] | 2.91 µM | –
36 | COc1ccc(OC)c(C2C(C#N)=C(N)Oc3c2c(-c2cc4ccccc4o2)nn3C)c1 (stereo not drawn) [Compound 31] | 6.21 µM | –
37 | Cn1nc(-c2cc3ccccc3o2)c2c1OC(N)=C(C#N)C2c1ccc(C(F)(F)F)cc1 (stereo not drawn) [Compound 28] | 3.42 µM | –
38 | Cn1nc(C(C)(C)C)c2c1OC(N)=C(C#N)C2c1ccc(-n2ccnc2)cc1 (stereo not drawn) [Compound 17] | 1.35 µM | –
39 | Cc1n[nH]c2c1C(c1ccc(OC(F)(F)F)cc1)C(C#N)=C(N)O2 (stereo not drawn) [Compound 7] | 3.21 µM | –
40 | Cc1nn(C(C)(C)C)c2c1C(c1ccc(-n3ccnc3)cc1)C(C#N)=C(N)O2 (stereo not drawn) [Compound 42] | 1.12 µM | –
41 | Cc1nn(C)c2c1C(c1cccc(-c3cncnc3)c1)C(C#N)=C(N)O2 (stereo not drawn) [Compound 14] | 5.05 µM | –
42 | Cc1n[nH]c2c1C(c1ccc(-n3ccnc3)cc1)C(C#N)=C(N)O2 (stereo not drawn) [Compound 10] | 0.9 µM | –
43 | COc1cc(OC)c(C2C(C#N)=C(N)Oc3[nH]nc(C)c32)c(OC)c1 (stereo not drawn) [Compound 8] | 3.28 µM | –
44 | Cc1nn(C)c2c1C(c1ccc(N(C)C)cc1)C(C#N)=C(N)O2 (stereo not drawn) [Compound 34] | > 10 µM | –
45 | CC(C)c1nn(C)c2c1C(c1ccc(C(F)(F)F)cc1)C(C#N)=C(N)O2 (stereo not drawn) [Compound 26] | 2.96 µM | –
46 | COc1cc(C2C(C#N)=C(N)Oc3c2c(C)nn3C)ccc1C(F)(F)F (stereo not drawn) [Compound 13] | 2.99 µM | –
47 | Cc1nn(C)c2c1C(c1ccc(N3CCCC3)cc1)C(C#N)=C(N)O2 (stereo not drawn) [Compound 36] | 8.39 µM | –
48 | COc1ccc(-c2n[nH]c3c2C(c2ccc(-n4ccnc4)cc2)C(C#N)=C(N)O3)cc1 (stereo not drawn) [Compound 47] | 1.32 µM | –
